# Columns and labels:
# [1] = animal studies, ingestion; cited from earlier work
# [2] = Reduction of oxidized NDGA in methanolic solution by reducing agents, followed by chromatography; details: reducing agent at 100 mg/ml in methanolic solution of oxidized NDGA
smiles,measurement,setting,value
"CC(Cc1ccc(O)c(O)c1)C(C)Cc1ccc(O)c(O)c1 (stereo not drawn) [NDGA, nordihydroguaiaretic acid]",kidney toxicity,[1],evidence of kidney toxicity
O=C1O[C@H]([C@@H](O)CO)C(O)=C1O [ascorbic acid],time to reduce oxidized NDGA,[2],approximately 1 minute
O=S([O-])S(=O)[O-].[Na+].[Na+] [sodium hydrosulfite],NDGA quinone remaining by chromatography after reduction,[2],still detectable

# From US20050123560A1, “High purity and water dispersible extract and formulations of larrea tridentata leaf resin, and methods of making and using the same” (priority 2003, published 2005)
